Test system: 485176-168-R4-J1-PDC spheroids with HUVEC/MSC, viability
Assay: Anticancer human tumor 485176-168-R4-J1-PDC patient-derived pancreatic adenocarcinoma cell line growth inhibition [GQUAD]
Settings: for IC50: curve of first compound; for viability, T/C: stronger effect = lower value
From the text: DNA G-quadruplex Stabilizer Agents in Combinations in Complex Spheroids
A high-throughput screen of multi-cell type tumor spheroids was designed to identify active combinations of DNA G-quadruplex stabilizer agents and targeted small molecules. Complex spheroids include a stromal component modeled by human endothelial cells (HUVEC) and fibroblasts modeled by human mesenchymal stem cells (MSCs). The concentration ranges selected for each drug and investigational agent were based upon clinically achievable concentrations if the clinical Cmax of the agent was known.
Compounds. The drugs and investigational agents: pidnarulex (CX-5461; NSC782164), APTO-253 (NSC789042), BRACO-19 (NSC847499), peposertib (NSC802822), ceralasertib (NSC780249), elimusertib (NSC800525), camonsertib (NSC841442), AZD-1390 (NSC803789), olaparib (NSC753686), talazoparib (NSC767125), ART-558 (NSC835418), sotorasib (NSC818433), MRTX-1133 (NSC836407), SN-38 (NSC673596), topotecan (NSC609699), etoposide (NSC141540), doxorubicin (NSC123127), gemcitabine (NSC613327), 5-fluorouracil (NSC19893), paclitaxel (NSC125973), vemurafenib (NSC761431), panobinostat (NSC761190), R-306465 (JNJ-16241199; NSC773264), adavosertib (NSC754352), TP-3654 (NSC805149), carboplatin (NSC241240), KSQ-4279 (NSC840948), and staurosporine (NSC755774) were obtained from the National Cancer Institute (NCI) Developmental Therapeutics Program Chemical Repository (34). The FDA-approved anticancer drug set is available from the NCI Developmental Therapeutics Program. […] The stock solutions were prepared in dimethyl sulfoxide (DMSO, Sigma-Aldrich, St. Louis, MO, cat. D2650) at 800-fold the tested concentration and stored at -70 degrees C prior to their use. All drugs and investigational agents were tested over a range starting from a high concentration at or near the clinical Cmax and decreasing in half-log increments. If the clinical Cmax for an agent had not been determined, the highest concentration tested was 10 microM.
2.3 Cell Culture. All cells were maintained in an incubator at 37 degrees C and 5% CO2 with 95% humidity. The PDC lines were cultured according to standard operating procedures established by the NCI PDMR. All PDCs were thawed and cultured in Matrigel-coated flasks prepared with a working solution of 1X Ham's F-12 nutrient mix, without supplementation (Invitrogen, cat. 11765054), 100 U/mL penicillin-streptomycin (Invitrogen, cat. 15140122), and 2.5% Matrigel (Corning Inc., cat. 354248) for the first three passages. The 857933-349-R-J2-PDC line was cultured in 6C/Colon 1B media, which includes advanced DMEM/F-12 (Thermo Fisher Scientific, cat. 12634028), 10 mM HEPES (Thermo Fisher Scientific, cat. 15630080), 1X GlutaMAX supplement (Thermo Fisher Scientific, cat. 35050061), 0.1 mg/mL primocin (InvivoGen, cat. ant-pm-2), 10% defined fetal bovine serum, heat inactivated (HyClone Laboratories Inc., cat. SH30070.03HI), 50% L-WRN conditioned media (ATCC, cat. CRL-3276), 1.25 mM N-Acetyl-L-cysteine (Sigma-Aldrich, cat. A9165), 10 mM nicotinamide (Sigma-Aldrich, cat. N0636), 1X B-27 supplement (Thermo Fisher Scientific, cat. 17504044), 1X N-2 supplement (Thermo Fisher Scientific, cat. 17502048), 10 microM Y-27632 dihydrochloride (Tocris Bioscience, cat. 1254), and 50 ng/mL human EGF recombinant protein (Thermo Fisher Scientific, cat. PHG0311). The 485176-168-R4-J1-PDC line was cultured in Panc media, which includes all 6C/Colon 1B media components plus 100 ng/mL human FGF-10 (Thermo Fisher Scientific, cat. 100-26), 500 nM SB-431542 (Selleckchem, cat. S1067), and gastrin (Tocris, cat. 3006).
[…]

[1] = second compound 0.0316 µM, first compound 0.0316 µM
[2] = second compound 0.0316 µM, first compound 0.316 µM
[3] = second compound 0.1 µM, first compound 0.0316 µM
[4] = second compound 0.1 µM, first compound 0.316 µM
[5] = second compound 0.316 µM, first compound 0.0316 µM
[6] = second compound 0.316 µM, first compound 0.316 µM
[7] = second compound 1 µM, first compound 0.0316 µM
[8] = second compound 1 µM, first compound 0.316 µM
[9] = second compound 3.16 µM, first compound 0.0316 µM
[10] = second compound 3.16 µM, first compound 0.316 µM
[11] = second compound 10 µM, first compound 0.0316 µM
[12] = second compound 10 µM, first compound 0.316 µM
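Further: spheroids exposed to compounds for seven days before readout.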
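Wherever viability, T/C is given: percent viability relative to DMSO vehicle control wells as 100%.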

COc1cccc2c1C(=O)c1c(O)c3c(c(O)c1C2=O)CC(O)(C(=O)CO)CC3OC1CC(N)C(O)C(C)O1 (centres undefined) + Cc1cnc(CNC(=O)c2c(=O)c3ccc(N4CCCN(C)CC4)nc3n3c2sc2ccccc23)cn1
IC50 (second compound 0.0316 µM): 0.398 µM
IC50 (second compound 0.1 µM): 0.141 µM
IC50 (second compound 0.316 µM): 0.196 µM
IC50 (second compound 1 µM): < 0.0316 µM
IC50 (second compound 3.16 µM): < 0.0316 µM
IC50 (second compound 10 µM): < 0.0316 µM
viability, T/C [1]: 81.3%
viability, T/C (second compound 0.0316 µM, first compound 0.1 µM): 60.9%
viability, T/C [2]: 60.5%
viability, T/C (second compound 0.0316 µM, first compound 1 µM): 13.4%
viability, T/C (second compound 0.0316 µM, first compound 3.16 µM): 3.49%
viability, T/C (second compound 0.0316 µM, first compound 10 µM): 0.42%
viability, T/C [3]: 80.5%
viability, T/C (second compound 0.1 µM, first compound 0.1 µM): 55.9%
viability, T/C [4]: 34.5%
viability, T/C (second compound 0.1 µM, first compound 1 µM): 20.1%
viability, T/C (second compound 0.1 µM, first compound 3.16 µM): 1.67%
viability, T/C (second compound 0.1 µM, first compound 10 µM): 0.88%
viability, T/C [5]: 55.8%
viability, T/C (second compound 0.316 µM, first compound 0.1 µM): 50.8%
viability, T/C [6]: 48.7%
viability, T/C (second compound 0.316 µM, first compound 1 µM): 18.6%
viability, T/C (second compound 0.316 µM, first compound 3.16 µM): 6.39%
viability, T/C (second compound 0.316 µM, first compound 10 µM): 0.16%
viability, T/C [7]: 54.5%
viability, T/C (second compound 1 µM, first compound 0.1 µM): 41%
viability, T/C [8]: 51.7%
viability, T/C (second compound 1 µM, first compound 1 µM): 28.2%
viability, T/C (second compound 1 µM, first compound 3.16 µM): 8.43%
viability, T/C (second compound 1 µM, first compound 10 µM): 0.95%
viability, T/C [9]: 41.6%
viability, T/C (second compound 3.16 µM, first compound 0.1 µM): 40.2%
viability, T/C [10]: 44.5%
viability, T/C (second compound 3.16 µM, first compound 1 µM): 28.1%
viability, T/C (second compound 3.16 µM, first compound 3.16 µM): 7.56%
viability, T/C (second compound 3.16 µM, first compound 10 µM): 0.84%
viability, T/C [11]: 49.8%
viability, T/C (second compound 10 µM, first compound 0.1 µM): 39.7%
viability, T/C [12]: 44.6%
viability, T/C (second compound 10 µM, first compound 1 µM): 30.4%
viability, T/C (second compound 10 µM, first compound 3.16 µM): 7.78%
viability, T/C (second compound 10 µM, first compound 10 µM): 1.08%

CCc1c2c(nc3ccc(O)cc13)-c1cc3c(c(=O)n1C2)COC(=O)[C@]3(O)CC + CN(C)c1ccc(Nc2c3ccc(NC(=O)CCN4CCCC4)cc3nc3cc(NC(=O)CCN4CCCC4)ccc23)cc1
IC50 (second compound 0.0316 µM): 0.00698 µM
IC50 (second compound 0.1 µM): 0.00932 µM
IC50 (second compound 0.316 µM): 0.00931 µM
IC50 (second compound 1 µM): 0.00726 µM
IC50 (second compound 3.16 µM): 0.0112 µM
IC50 (second compound 10 µM): 0.00771 µM
viability, T/C (second compound 0.0316 µM, first compound 0.000999 µM): 87.7%
viability, T/C (second compound 0.0316 µM, first compound 0.00316 µM): 68.4%
viability, T/C (second compound 0.0316 µM, first compound 0.00999 µM): 38.3%
viability, T/C [1]: 28.5%
viability, T/C (second compound 0.0316 µM, first compound 0.0999 µM): 13.5%
viability, T/C [2]: 6%
viability, T/C (second compound 0.1 µM, first compound 0.000999 µM): 77.8%
viability, T/C (second compound 0.1 µM, first compound 0.00316 µM): 67.9%
viability, T/C (second compound 0.1 µM, first compound 0.00999 µM): 48.1%
viability, T/C [3]: 28.6%
viability, T/C (second compound 0.1 µM, first compound 0.0999 µM): 11.2%
viability, T/C [4]: 5.98%
viability, T/C (second compound 0.316 µM, first compound 0.000999 µM): 91.1%
viability, T/C (second compound 0.316 µM, first compound 0.00316 µM): 86.8%
viability, T/C (second compound 0.316 µM, first compound 0.00999 µM): 41.8%
viability, T/C [5]: 27.6%
viability, T/C (second compound 0.316 µM, first compound 0.0999 µM): 12.9%
viability, T/C [6]: 6.92%
viability, T/C (second compound 1 µM, first compound 0.000999 µM): 103%
viability, T/C (second compound 1 µM, first compound 0.00316 µM): 58%
viability, T/C (second compound 1 µM, first compound 0.00999 µM): 50.7%
viability, T/C [7]: 28.1%
viability, T/C (second compound 1 µM, first compound 0.0999 µM): 13.8%
viability, T/C [8]: 6.15%
viability, T/C (second compound 3.16 µM, first compound 0.000999 µM): 88.8%
viability, T/C (second compound 3.16 µM, first compound 0.00316 µM): 88%
viability, T/C (second compound 3.16 µM, first compound 0.00999 µM): 43.4%
viability, T/C [9]: 34.2%
viability, T/C (second compound 3.16 µM, first compound 0.0999 µM): 14.3%
viability, T/C [10]: 8.88%
viability, T/C (second compound 10 µM, first compound 0.000999 µM): 80.3%
viability, T/C (second compound 10 µM, first compound 0.00316 µM): 61%
viability, T/C (second compound 10 µM, first compound 0.00999 µM): 45.3%
viability, T/C [11]: 34.1%
viability, T/C (second compound 10 µM, first compound 0.0999 µM): 19.3%
viability, T/C [12]: 8.05%

Source: PubChem BioAssay AID2060509 (Molecular Pharmacology Branch, DTP, NCI, 2025)
